In patent US8956878B2, “Polypeptides with affinity for heat shock proteins (HSPS) and HSP associated complexes (HACS) and their use in diagnosis and therapy” (Atlantic Cancer Research Institute, priority 2011, dated 2015):
Like-named read-outs stand apart in the source and are kept apart here.

How the values were obtained:
[1] = test system: recombinant A. davidanieli HSP70 (adHSP70); assay type: binding, Arthrobacter davidanieli; conditions: for CHIEF complex formation with adHSP70: substance as counter migrant to adHSP70
[2] = biological target: T1, Recombinant Mycobacterium tuberculosis HSP70 (Mycobacterium tuberculosis, UniProt P9WMJ9); assay type: binding; conditions: IEF gel, counter migrant
T1 construct: purchased Aalto, Eire

Recombinant murine HSP70 = Recombinant murine HSP70 (Mus musculus, UniProt Q61696); assay: CHIEF against recombinant murine HSP70; assay type: binding; conditions: 40 μg peptide
human HSP70 = human HSP70 (Homo sapiens, UniProt P0DMV8); assay: CHIEF against recombinant human HSP70; assay type: binding; conditions: 1 μg HSP70, 15 μg peptide
rat HSP70 = rat HSP70 (Rattus norvegicus, UniProt P0DMW0); assay: CHIEF against recombinant rat HSP70; assay type: binding; conditions: 1 μg HSP70, 15 μg peptide
[3] = biological target: cytoplasmic recombinant human HSP90 (Homo sapiens, UniProt P07900); assay: CHIEF against recombinant human HSP90; assay type: binding; conditions: IEF gel, counter migrant
[4] = biological target: glycoprotein 96 (gp96; canine) (Canis lupus familiaris, UniProt P41148); assay: CHIEF against gp96 (ER isoform of HSP90); assay type: binding; conditions: IEF gel, counter migrant
[5] = test system: Nalm-6 cytoplasmic and membrane associated proteins; assay: CHIEF against subcellular fractions of Nalm-6 leukemia cells; assay type: binding
Excerpt: Abbreviations: φ=No peptide added at anode; MBPWT1, MBP100-117_WT1 117-134; MBP, MBP100-117; WT1, WT1 117-134. […] The arrowheads in lanes 2, 6, 10 (top), 14 and 18 (top) indicate expected CHIEF complex focusing near the 6.8 pl marker. The arrowheads in lanes 10 (bottom) and 18 (bottom) indicate the appearance of a CHIEF complex focusing near the 7.4 pl marker. The arrowheads in lane 5 and 19 (top and bottom) indicate where there has been cross over of the MBP117-134WT1 peptide into an adjacent lane causing a drive-by or swipe CHIEF complex formation (lane 5, lane 19).
Three identical lanes were prepared for the generation of CHIEF complexes between MBP100-117WT1 117-134 (80 μg) and 10 μg of Nalm-6 membrane associated proteins.
(§1) The example investigates the possibility that the bMBPWT1 peptide binds HSPs directly from cell lysates in a similar manner to when single recombinant HSP was used as a counter ion. Cancer cells are addicted to the overexpression of HSPs to support growth under poor environmental conditions, to facilitate the function of otherwise unstable oncoproteins and the ablation of apoptosis. Most, if not all, cancer cells should provide a rich source of human HSPs to serve as complex forming counter migrants for the MBP peptide co-synthesised with WT1 and SW peptides. […]

[6] = test system: MDA MB231 cytoplasmic and membrane associated proteins; assay: CHIEF against subcellular fractions of MDA MB231 breast cancer cells; assay type: binding; conditions: 80 μg peptide, 10 μg subcellular fraction
Protocol: Abbreviations: φ=No peptide added at anode; MBPWT1, MBP100-117_WT1 117-134; MBP, MBP100-117; WT1, WT1 117-134. All peptides applied at cathode at a concentration of 80 μg (sic); subcellular fractions applied at cathode at a concentration of 10 μg. The arrowheads in lanes 2, 6, 10 (top), 14 and 18 (top) indicate expected CHIEF complex focusing near the 6.8 pl marker. The arrowheads in lanes 10 (bottom) and 18 (bottom) indicate the appearance of a CHIEF complex focusing near the 7.4 pl marker. The arrowheads in lane 5 and 19 (top and bottom) indicate where there has been cross over of the MBP117-134WT1 peptide into an adjacent lane causing a drive-by or swipe CHIEF complex formation (lane 5, lane 19).
as §1

[7] = test system: SKBR3 cytoplasmic proteins; assay: CHIEF against SKBR3 cytoplasmic proteins; assay type: binding; conditions: 7 μg protein per lane
Protocol: MBPWT1 peptide was tested as a counter ion to proteins from breast cancer cell line SKBR3. MBP co-synthesised with survivin peptides were also used as alternative sources of counter ions (FIG. 10).
The increased degree of complex formation observed in FIG. 10 prompted a closer evaluation of MBP co-synthesized with the three chosen survivin peptides 20-28, isoform 3 88-96 and 96-104.

PC3 (prostate cancer) = assay: Peptide in extracellular medium of PC3 cells; assay type: cell-based; conditions: 7-25 μg/mL in extracellular medium, within 24 hours
Protocol: (§2) The alpha helix and flanking sequences may permit the peptides of the application to resist the protease rich medium of cancer cells, a trait shared by human tissue fluids (e.g. serum). […] Since all major cancer causing species rely upon scaffolding by HSPs for stability and function, the peptides may represent a source of direct therapeutic application.
(§3) When the peptides of the present application were included in the extracellular medium of the cancer cell lines (at concentrations of 7-25 μg/mL) such as PC3 (prostate cancer) and MCF7 (breast cancer), there was an inhibition of the protein synthesis and cell lysis within 24 hours. […] Since all major cancer causing species rely upon scaffolding by HSPs for stability and function, the peptides may represent a source of direct therapeutic application.

MCF7 (breast cancer) = assay: Peptide in extracellular medium of MCF7 cells; assay type: cell-based; conditions: 7-25 μg/mL in extracellular medium, within 24 hours
Protocol: as §2, §3

[8] = test system: vesicular material from culture medium or biological fluid; assay: Fractionation of vesicular material; conditions: as second peptide portion of the polypeptide
Excerpt: (§4) In another embodiment, the at least one second peptide portion contributes to the selectivity of the affinity of the polypeptide.

[9] = test system: HACs from sub-cellular extracts; assay: Fractionation of HACs from sub-cellular extracts; conditions: as second peptide portion of the polypeptide
Excerpt: as §4

T1 sequence (P9WMJ9 whole entry): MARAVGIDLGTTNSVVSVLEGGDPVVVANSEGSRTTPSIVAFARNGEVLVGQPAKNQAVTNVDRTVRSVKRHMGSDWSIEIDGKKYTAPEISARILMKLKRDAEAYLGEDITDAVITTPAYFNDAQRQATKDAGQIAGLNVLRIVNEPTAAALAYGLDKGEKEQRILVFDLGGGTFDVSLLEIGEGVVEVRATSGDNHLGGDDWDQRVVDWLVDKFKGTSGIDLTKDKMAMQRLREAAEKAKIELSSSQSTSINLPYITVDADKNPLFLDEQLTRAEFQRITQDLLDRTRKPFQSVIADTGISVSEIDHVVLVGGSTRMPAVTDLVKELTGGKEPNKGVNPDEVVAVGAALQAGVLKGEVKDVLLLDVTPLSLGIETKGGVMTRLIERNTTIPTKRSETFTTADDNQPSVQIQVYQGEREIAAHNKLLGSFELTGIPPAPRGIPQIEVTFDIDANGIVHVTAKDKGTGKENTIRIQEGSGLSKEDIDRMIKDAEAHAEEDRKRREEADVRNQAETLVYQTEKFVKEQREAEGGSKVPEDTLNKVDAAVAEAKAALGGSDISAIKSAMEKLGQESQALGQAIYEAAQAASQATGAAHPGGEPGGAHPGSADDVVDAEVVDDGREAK
Chain of rat HSP70 (P0DMW0 whole entry): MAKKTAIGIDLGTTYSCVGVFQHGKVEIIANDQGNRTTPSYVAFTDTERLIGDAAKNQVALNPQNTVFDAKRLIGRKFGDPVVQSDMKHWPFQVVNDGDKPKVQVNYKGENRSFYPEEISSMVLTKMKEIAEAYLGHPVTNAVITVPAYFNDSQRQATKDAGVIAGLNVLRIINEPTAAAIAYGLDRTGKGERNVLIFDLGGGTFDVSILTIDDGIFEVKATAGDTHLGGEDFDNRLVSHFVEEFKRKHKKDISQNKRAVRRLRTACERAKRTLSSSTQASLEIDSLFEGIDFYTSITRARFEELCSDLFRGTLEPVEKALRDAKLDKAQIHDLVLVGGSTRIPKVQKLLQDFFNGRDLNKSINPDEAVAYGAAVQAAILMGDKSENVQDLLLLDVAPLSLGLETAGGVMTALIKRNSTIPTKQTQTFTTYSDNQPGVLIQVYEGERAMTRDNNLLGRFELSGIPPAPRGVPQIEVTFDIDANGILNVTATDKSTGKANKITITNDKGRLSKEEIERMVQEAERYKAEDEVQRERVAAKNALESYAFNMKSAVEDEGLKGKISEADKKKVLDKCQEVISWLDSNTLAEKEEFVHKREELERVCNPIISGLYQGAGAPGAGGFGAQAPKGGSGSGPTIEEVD
Chain of glycoprotein 96 (gp96; canine) (P41148 22-804): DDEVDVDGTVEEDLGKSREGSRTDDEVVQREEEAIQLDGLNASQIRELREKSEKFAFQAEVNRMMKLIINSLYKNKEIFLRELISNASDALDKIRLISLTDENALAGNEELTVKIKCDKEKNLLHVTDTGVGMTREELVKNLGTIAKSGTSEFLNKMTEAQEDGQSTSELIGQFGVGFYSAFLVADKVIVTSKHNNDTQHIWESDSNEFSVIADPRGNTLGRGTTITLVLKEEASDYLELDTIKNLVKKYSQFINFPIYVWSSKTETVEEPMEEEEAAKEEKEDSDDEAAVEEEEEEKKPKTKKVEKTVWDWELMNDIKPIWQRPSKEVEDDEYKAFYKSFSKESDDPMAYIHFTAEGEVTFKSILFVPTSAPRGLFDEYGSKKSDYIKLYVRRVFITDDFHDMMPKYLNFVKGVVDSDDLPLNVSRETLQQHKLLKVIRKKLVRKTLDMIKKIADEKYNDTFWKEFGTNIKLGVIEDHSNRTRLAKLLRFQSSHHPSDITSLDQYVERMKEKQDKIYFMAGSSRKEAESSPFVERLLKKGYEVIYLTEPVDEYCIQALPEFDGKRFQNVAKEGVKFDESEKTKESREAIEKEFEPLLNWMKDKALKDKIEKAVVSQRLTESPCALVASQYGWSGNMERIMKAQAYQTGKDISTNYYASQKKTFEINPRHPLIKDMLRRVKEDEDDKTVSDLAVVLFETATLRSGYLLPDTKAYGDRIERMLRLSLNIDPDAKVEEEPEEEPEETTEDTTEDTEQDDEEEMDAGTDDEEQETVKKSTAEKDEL
Chain of Recombinant murine HSP70 (Q61696 whole entry): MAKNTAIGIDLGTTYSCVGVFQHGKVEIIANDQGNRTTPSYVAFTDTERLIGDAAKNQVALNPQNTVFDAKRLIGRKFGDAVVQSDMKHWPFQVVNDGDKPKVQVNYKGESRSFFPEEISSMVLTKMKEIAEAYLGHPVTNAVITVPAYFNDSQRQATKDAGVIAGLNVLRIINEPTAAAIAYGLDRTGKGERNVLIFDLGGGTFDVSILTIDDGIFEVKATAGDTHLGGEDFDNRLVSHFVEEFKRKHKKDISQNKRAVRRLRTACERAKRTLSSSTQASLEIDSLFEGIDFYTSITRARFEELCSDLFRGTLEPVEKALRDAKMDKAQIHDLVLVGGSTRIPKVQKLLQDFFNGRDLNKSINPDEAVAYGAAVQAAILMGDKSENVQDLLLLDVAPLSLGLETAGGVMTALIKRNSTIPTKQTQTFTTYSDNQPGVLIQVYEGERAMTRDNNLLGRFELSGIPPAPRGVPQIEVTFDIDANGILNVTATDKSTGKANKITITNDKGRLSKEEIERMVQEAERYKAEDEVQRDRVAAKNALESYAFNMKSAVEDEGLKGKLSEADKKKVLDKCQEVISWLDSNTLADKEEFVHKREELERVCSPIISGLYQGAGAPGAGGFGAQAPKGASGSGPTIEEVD
Chain of human HSP70 (P0DMV8 whole entry): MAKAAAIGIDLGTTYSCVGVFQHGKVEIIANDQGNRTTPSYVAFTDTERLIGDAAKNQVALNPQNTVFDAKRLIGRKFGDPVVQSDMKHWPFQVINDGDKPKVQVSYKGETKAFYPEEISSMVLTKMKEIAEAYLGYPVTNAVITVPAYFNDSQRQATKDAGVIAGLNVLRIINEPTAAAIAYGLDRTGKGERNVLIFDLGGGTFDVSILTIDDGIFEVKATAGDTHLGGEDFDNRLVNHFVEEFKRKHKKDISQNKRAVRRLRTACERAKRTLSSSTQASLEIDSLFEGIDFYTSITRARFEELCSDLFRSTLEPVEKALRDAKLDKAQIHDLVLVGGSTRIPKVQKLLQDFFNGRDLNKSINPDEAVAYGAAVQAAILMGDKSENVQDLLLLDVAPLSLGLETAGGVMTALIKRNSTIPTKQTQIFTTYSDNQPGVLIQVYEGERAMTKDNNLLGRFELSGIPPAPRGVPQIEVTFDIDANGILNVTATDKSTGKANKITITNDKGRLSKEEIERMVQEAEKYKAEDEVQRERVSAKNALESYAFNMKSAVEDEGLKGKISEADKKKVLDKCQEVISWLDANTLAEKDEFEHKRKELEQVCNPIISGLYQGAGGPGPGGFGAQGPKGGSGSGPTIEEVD

## histone 2A
[1]; IEF gel
  CHIEF complex formation with adHSP70: yielded an identical complex

## lysozyme
[1]; IEF gel
  CHIEF complex formation with adHSP70: did bind
[2]
  CHIEF complex formation with M. tuberculosis HSP70: complexed

## myoglobin
[1]; IEF gel
  CHIEF complex formation with adHSP70: did not interact

## trypsinogen
[1]; IEF gel
  CHIEF complex formation with adHSP70: did not interact

## PSQGKGRGLSLSRFSWGA (listed as Bos taurus) [SEQ ID NO: 2]
[1]; 100 μg peptide, 2 μg adHSP70
  effect of high peptide concentration on complex formation with adHSP70: appears to inhibit complex formation
[1]; IEF gel, listed as 100-117
  CHIEF complex formation with adHSP70: produced counter ion complexes
[1]; IEF gel, listed as MBP 100-117
  CHIEF complex formation with adHSP70: binding
[1]; IEF gel, listed as MBP peptide
  CHIEF complex formation with adHSP70: far more limited complex formation
[2]; listed as 100-117
  CHIEF complex formation with M. tuberculosis HSP70: produced counter ion complexes
[2]; listed as MBP peptide
  CHIEF complex formation with M. tuberculosis HSP70: counter migrant complex formed
Recombinant murine HSP70
  CHIEF complex formation with murine HSP70: complexed

## MBPWT1: MBP peptide 100-117 co-synthesised with Wilms tumor protein 1 peptide 117-134 (PSQGKGRGLSLSRFSWGAPSQASSGQARMFPNAPYL)
[1]; IEF gel
  CHIEF complex formation with adHSP70: appeared to augment the formation of the complex
Human HSP70
  CHIEF complex formation with human HSP70: Some evidence of counter migrant complex formation
Rat HSP70
  CHIEF complex formation with rat HSP70: Some evidence of counter migrant complex formation
[3]
  CHIEF complex formation with human HSP90: produced complexes
[4]
  CHIEF complex formation with gp96: produced complexes
[5]; 80 μg peptide, 10 μg subcellular fraction
  CHIEF complex formation with Nalm-6 cytoplasmic proteins: yielded similar CHIEF complexes
[5]; concentrations below 80 μg
  CHIEF complex formation with Nalm-6 proteins at lower peptide amount: occasionally produced only modest complexes
[6]
  CHIEF complex formation with MDA MB231 cytoplasmic proteins: yielded similar CHIEF complexes
[7]
  CHIEF complex formation with SKBR3 proteins: Small counter migrant complexes formed

## PSQGKGRGLSLSRFSWGALRRKCAVPS [SEQ ID NO: 66]
[7]
  CHIEF complex formation with SKBR3 proteins: much larger band formed
PC3 (prostate cancer)
  effect on protein synthesis and cell lysis, PC3: drastic inhibition of protein synthesis and cell lysis
MCF7 (breast cancer)
  effect on protein synthesis and cell lysis, MCF7: drastic inhibition of protein synthesis and cell lysis

## LTLGEFLKL (listed as Homo sapiens) [SEQ ID NO: 8]
[8]
  efficiency of fractionating vesicular material: more efficient

## carbonic anhydrase
[1]; IEF gel
  CHIEF complex formation with adHSP70: did not interact

## WT1 117-134: Wilms tumor protein 1 peptide 117-134 (PSQASSGQARMFPNAPYL) [reference compound]
[1]; IEF gel
  CHIEF complex formation with adHSP70: no evidence of binding
[1]; IEF gel, listed as WT1
  CHIEF complex formation with adHSP70: limited complex formation

## LRRKCAVPS (listed as Homo sapiens) [SEQ ID NO: 9]
[9]
  efficiency of fractionating HACs from sub-cellular extracts: more efficiently fractionated

## MBP 62-78: candidate binding peptide, residues 62-78 of bovine myelin basic protein (ARTTHYGSLPQKAQGHR)
[1]; IEF gel
  CHIEF complex formation with adHSP70: negligible binding

B1: Bovine myelin basic protein (protein)
chain: AAQKRPSQRSKYLASASTMDHARHGFLPRHRDTGILDSLGRFFGSDRGAPKRGSGKDGHHAARTTHYGSLPQKAQGHRPQDENPVVHFFKNIVTPRTPPPSQGKGRGLSLSRFSWGAEGQKPGFGYGGRASDYKSAHKGLKGHDAQGTLSKIFKLGGRDSRSGSPMARR
[1]; IEF gel
  focusing position (pI marker) of CHIEF complex with adHSP70: ~6.5
  CHIEF complex formation with adHSP70: bound
[1]; IEF gel, listed as MBP
  CHIEF complex formation with adHSP70: binding
[2]
  CHIEF complex formation with M. tuberculosis HSP70: complexed
